From the NIST ThermoML archive (doi:10.1021/je8005369)
Numbers after ± are expanded uncertainties.

Details: Liquid; for mass density: Vibrating Wire Viscometer; for viscosity: Vibrating wire viscometry

CC(C)OC(C)C [diisopropyl ether]
Details	mass density [kg/m3]	viscosity [mPa·s]
243.15 K, 100 kPa	772.385 ± 1.6	0.6191 ± 0.015
243.15 K, 4660 kPa	776.195 ± 1.6	0.6466 ± 0.016
243.15 K, 10070 kPa	780.42 ± 1.6	0.6826 ± 0.016
243.15 K, 15370 kPa	784.377 ± 1.6	0.7177 ± 0.017
243.15 K, 20860 kPa	788.392 ± 1.6	0.7529 ± 0.018
253.15 K, 100 kPa	762.804 ± 1.6	0.5343 ± 0.013
253.15 K, 4720 kPa	766.842 ± 1.6	0.5601 ± 0.014
253.15 K, 9990 kPa	771.35 ± 1.6	0.5898 ± 0.014
253.15 K, 15400 kPa	775.704 ± 1.6	0.6187 ± 0.015
253.15 K, 20740 kPa	779.692 ± 1.6	0.65 ± 0.016
263.15 K, 100 kPa	753.037 ± 1.6	0.4687 ± 0.012
263.15 K, 4470 kPa	757.298 ± 1.6	0.4896 ± 0.012
263.15 K, 9490 kPa	761.805 ± 1.6	0.5141 ± 0.013
263.15 K, 14490 kPa	766.126 ± 1.6	0.5388 ± 0.013
263.15 K, 19640 kPa	770.142 ± 1.6	0.5638 ± 0.014
273.15 K, 100 kPa	743.309 ± 1.6	0.4142 ± 0.011
273.15 K, 4690 kPa	748.026 ± 1.6	0.4344 ± 0.011
273.15 K, 10010 kPa	753.179 ± 1.6	0.4579 ± 0.011
273.15 K, 15290 kPa	757.99 ± 1.6	0.4815 ± 0.012
273.15 K, 20420 kPa	762.359 ± 1.6	0.5042 ± 0.013
283.15 K, 100 kPa	733.393 ± 1.5	0.3689 ± 0.0096
283.15 K, 4700 kPa	738.525 ± 1.5	0.3877 ± 0.01
283.15 K, 10100 kPa	744.147 ± 1.6	0.4088 ± 0.01
283.15 K, 15460 kPa	749.321 ± 1.6	0.4306 ± 0.011
283.15 K, 21360 kPa	754.612 ± 1.6	0.456 ± 0.011
293.15 K, 100 kPa	723.318 ± 1.5	0.3311 ± 0.0088
293.15 K, 4470 kPa	728.638 ± 1.5	0.3474 ± 0.0091
293.15 K, 9590 kPa	734.393 ± 1.5	0.3671 ± 0.0096
293.15 K, 14750 kPa	739.779 ± 1.5	0.3855 ± 0.0099
293.15 K, 20450 kPa	745.301 ± 1.6	0.4079 ± 0.01
303.15 K, 100 kPa	713.113 ± 1.5	0.299 ± 0.0081
303.15 K, 4440 kPa	718.817 ± 1.5	0.3124 ± 0.0084
303.15 K, 9500 kPa	725.014 ± 1.5	0.331 ± 0.0088
303.15 K, 14650 kPa	730.787 ± 1.5	0.3496 ± 0.0092
303.15 K, 19650 kPa	735.942 ± 1.5	0.3668 ± 0.0096
313.15 K, 100 kPa	702.804 ± 1.5	0.2703 ± 0.0076
313.15 K, 4840 kPa	709.502 ± 1.5	0.2869 ± 0.0079
313.15 K, 10140 kPa	716.438 ± 1.5	0.3038 ± 0.0082
313.15 K, 15550 kPa	722.843 ± 1.5	0.3213 ± 0.0086
313.15 K, 21490 kPa	729.298 ± 1.5	0.3414 ± 0.009
323.15 K, 100 kPa	692.225 ± 1.5	0.2468 ± 0.0071
323.15 K, 4760 kPa	699.461 ± 1.5	0.2615 ± 0.0074
323.15 K, 10370 kPa	707.408 ± 1.5	0.2776 ± 0.0077
323.15 K, 15480 kPa	713.832 ± 1.5	0.2946 ± 0.008
323.15 K, 20780 kPa	720.04 ± 1.5	0.311 ± 0.0084
333.15 K, 100 kPa	681.435 ± 1.4	0.2254 ± 0.0067
333.15 K, 4750 kPa	689.427 ± 1.5	0.2389 ± 0.0069
333.15 K, 10360 kPa	697.963 ± 1.5	0.2554 ± 0.0073
333.15 K, 15670 kPa	705.137 ± 1.5	0.2716 ± 0.0076
333.15 K, 20890 kPa	711.63 ± 1.5	0.2848 ± 0.0078
343.15 K, 130 kPa	670.401 ± 1.4	0.2064 ± 0.0063
343.15 K, 4390 kPa	678.519 ± 1.4	0.2183 ± 0.0065
343.15 K, 9530 kPa	687.069 ± 1.5	0.2335 ± 0.0068
343.15 K, 14740 kPa	694.891 ± 1.5	0.2471 ± 0.0071
343.15 K, 21230 kPa	703.496 ± 1.5	0.2649 ± 0.0074
353.15 K, 200 kPa	659.151 ± 1.4	0.1889 ± 0.006
353.15 K, 4830 kPa	668.72 ± 1.4	0.203 ± 0.0062
353.15 K, 10320 kPa	678.629 ± 1.4	0.2176 ± 0.0065
353.15 K, 15760 kPa	687.163 ± 1.4	0.2324 ± 0.0068
353.15 K, 21100 kPa	694.71 ± 1.5	0.2466 ± 0.0071
363.15 K, 230 kPa	647.498 ± 1.4	0.1736 ± 0.0057
363.15 K, 4730 kPa	657.763 ± 1.4	0.1871 ± 0.006
363.15 K, 10170 kPa	668.51 ± 1.4	0.2014 ± 0.0062
363.15 K, 15830 kPa	678.192 ± 1.4	0.2152 ± 0.0065
363.15 K, 20860 kPa	685.734 ± 1.4	0.2294 ± 0.0067
373.15 K, 310 kPa	635.452 ± 1.4	0.1602 ± 0.0055
373.15 K, 4730 kPa	646.883 ± 1.4	0.1721 ± 0.0057
373.15 K, 9630 kPa	657.52 ± 1.4	0.1854 ± 0.0059
373.15 K, 15600 kPa	668.559 ± 1.4	0.2008 ± 0.0062
373.15 K, 21680 kPa	678.358 ± 1.4	0.2152 ± 0.0065
